# Source: the supplement of paper PMC6045584
# ± gives the standard deviation of the averaged measurements.
# Compound: O=C(O)CC[C@H]1CC[C@@](c2cc(F)ccc2F)(S(=O)(=O)c2ccc(Cl)cc2)CC1 [MK0752]
# Experiment: surviving fraction relative to DMSO-only wells; higher = less growth inhibition
# Conditions: 50 nM; exposure time: 5 days
# In short: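 At 250–500 cells per well in 384-well plates, log-phase tumour cell lines were seeded and, 24 hours on, exposed continuously for five days to inhibitors at 0.5, 1, 5, 10, 50, 100, 500 and 1000 nM. Viability readout was CellTiter-Glo luminescence, reported as surviving fraction normalised to the median of DMSO-only wells.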
row,Test System,surviving fraction
1,HCC70 BREAST,1.11 ± 0.073
2,HCC78 LUNG,1.17 ± 0.062
3,HCC202 BREAST,1.23 ± 0.21
4,HCC1806 BREAST,1.28 ± 0.043
5,HCC1954 BREAST,1 ± 0.05
6,HCT15 LARGE INTESTINE,1.09 ± 0.029
7,HELA CERVIX,1.13 ± 0.16
8,HMLE3 BREAST,0.999 ± 0.086
9,HMT3552 BREAST,1.04
10,HOS BONE,1.1 ± 0.024
11,HOSMNG BONE,1.05 ± 0.028
12,HS57T BREAST,1.13 ± 0.048
13,HS578T BREAST,0.946 ± 0.046
14,HSSYII SYNOVIAL,1.018 ± 0.0035
15,HT1080 SOFT TISSUE,0.948 ± 0.019
16,HU09 BONE,1.12 ± 0.069
17,JIMT1 BREAST,0.984 ± 0.021
18,JURKAT HAEMATOPOIETIC AND LYMPHOID TISSUE,1.04 ± 0.017
19,KPD BONE,1.053 ± 0.0087
20,LM7 BONE,1.03 ± 0.035
21,MCF7 BREAST,0.976 ± 0.051

row,Test System,surviving fraction
1,MDAMB134 BREAST,0.922 ± 0.035
2,MDAMB157 BREAST,1.11 ± 0.16
3,MDAMB231 BREAST,1.01 ± 0.013
4,MDAMB361 BREAST,0.893 ± 0.06
5,MDAMB436 BREAST,1.02 ± 0.13
6,MDAMB453 BREAST,1.08 ± 0.049
7,MDAMB468 BREAST,1.17 ± 0.023
8,MFM223 BREAST,1.19 ± 0.03
9,MG63 BONE,1.13 ± 0.055
10,MHM BONE,1.08 ± 0.029
11,NCIH441 LUNG,1.02 ± 0.03
12,NOS1 BONE,1.16 ± 0.042
13,NY BONE,1.07 ± 0.036
14,OS25HAL BONE,1.09 ± 0.0091
15,OSHN BONE,1.11 ± 0.034
16,PCI30 HEADNECK,1.06 ± 0.076
17,RDES SOFT TISSUE,1.03 ± 0.15
18,S68 BREAST,0.94 ± 0.094
19,SAOS2 BONE,1.237 ± 0.0098
20,SCC36 HEADNECK,1.12 ± 0.035

# Same assay, conditions: 100 nM; exposure time: 5 days
row,Test System,surviving fraction
1,HCC70 BREAST,1.08 ± 0.13
2,HCC78 LUNG,1.06 ± 0.15
3,HCC202 BREAST,1.21 ± 0.1
4,HCC1806 BREAST,1.23 ± 0.14
5,HCC1954 BREAST,0.904 ± 0.02
6,HCT15 LARGE INTESTINE,1.1 ± 0.024
7,HELA CERVIX,1.2 ± 0.087
8,HMLE3 BREAST,1.02 ± 0.066
9,HMT3552 BREAST,1.16
10,HOS BONE,1.1 ± 0.035
11,HOSMNG BONE,1.05 ± 0.029
12,HS57T BREAST,1.19 ± 0.077
13,HS578T BREAST,0.9 ± 0.056
14,HSSYII SYNOVIAL,1.01 ± 0.017
15,HT1080 SOFT TISSUE,1.02 ± 0.04
16,HU09 BONE,1.06 ± 0.088
17,JIMT1 BREAST,1.04 ± 0.036
18,JURKAT HAEMATOPOIETIC AND LYMPHOID TISSUE,1.01 ± 0.026
19,KPD BONE,1.1 ± 0.073
20,LM7 BONE,1.05 ± 0.048
21,MCF7 BREAST,0.913 ± 0.07

row,Test System,surviving fraction
1,MDAMB134 BREAST,1.09 ± 0.14
2,MDAMB157 BREAST,1.02 ± 0.15
3,MDAMB231 BREAST,1.01 ± 0.018
4,MDAMB361 BREAST,0.91 ± 0.064
5,MDAMB436 BREAST,0.881 ± 0.08
6,MDAMB453 BREAST,1.14 ± 0.034
7,MDAMB468 BREAST,1.17 ± 0.028
8,MFM223 BREAST,1.23 ± 0.016
9,MG63 BONE,1.1 ± 0.029
10,MHM BONE,1.08 ± 0.013
11,NCIH441 LUNG,1.05 ± 0.061
12,NOS1 BONE,1.28 ± 0.23
13,NY BONE,1.1 ± 0.02
14,OS25HAL BONE,1.1 ± 0.048
15,OSHN BONE,1.13 ± 0.018
16,PCI30 HEADNECK,1.08 ± 0.092
17,RDES SOFT TISSUE,1.18 ± 0.29
18,S68 BREAST,0.989 ± 0.058
19,SAOS2 BONE,1.19 ± 0.076
20,SCC36 HEADNECK,1.03 ± 0.055

# Same assay, conditions: 500 nM; exposure time: 5 days
row,Test System,surviving fraction
1,HCC70 BREAST,1.03 ± 0.055
2,HCC78 LUNG,0.839 ± 0.24
3,HCC202 BREAST,1.31 ± 0.069
4,HCC1806 BREAST,1.19 ± 0.075
5,HCC1954 BREAST,0.741 ± 0.05
6,HCT15 LARGE INTESTINE,1.09 ± 0.044
7,HELA CERVIX,1.2 ± 0.034
8,HMLE3 BREAST,0.979 ± 0.1
9,HMT3552 BREAST,1.11
10,HOS BONE,1.03 ± 0.046
11,HOSMNG BONE,1.06 ± 0.061
12,HS57T BREAST,1.02 ± 0.038
13,HS578T BREAST,0.833 ± 0.11
14,HSSYII SYNOVIAL,0.978 ± 0.029
15,HT1080 SOFT TISSUE,0.984 ± 0.0089
16,HU09 BONE,0.984 ± 0.14
17,JIMT1 BREAST,0.939 ± 0.021
18,JURKAT HAEMATOPOIETIC AND LYMPHOID TISSUE,0.988 ± 0.04
19,KPD BONE,0.951 ± 0.067
20,LM7 BONE,0.937 ± 0.11
21,MCF7 BREAST,0.964 ± 0.067

row,Test System,surviving fraction
1,MDAMB134 BREAST,1 ± 0.063
2,MDAMB157 BREAST,0.971 ± 0.07
3,MDAMB231 BREAST,0.9137 ± 0.0079
4,MDAMB361 BREAST,0.884 ± 0.056
5,MDAMB436 BREAST,0.897 ± 0.062
6,MDAMB453 BREAST,1.01 ± 0.029
7,MDAMB468 BREAST,1.07 ± 0.035
8,MFM223 BREAST,1.19 ± 0.1
9,MG63 BONE,0.987 ± 0.029
10,MHM BONE,0.975 ± 0.025
11,NCIH441 LUNG,1.07 ± 0.11
12,NOS1 BONE,1.05 ± 0.083
13,NY BONE,1.02 ± 0.042
14,OS25HAL BONE,1.02 ± 0.057
15,OSHN BONE,1.12 ± 0.02
16,PCI30 HEADNECK,1.03 ± 0.047
17,RDES SOFT TISSUE,0.97 ± 0.097
18,S68 BREAST,0.919 ± 0.19
19,SAOS2 BONE,1.12 ± 0.019
20,SCC36 HEADNECK,1.03 ± 0.047

# Same assay, conditions: 1000 nM; exposure time: 5 days
row,Test System,surviving fraction
1,HCC70 BREAST,0.924 ± 0.074
2,HCC78 LUNG,0.957 ± 0.17
3,HCC202 BREAST,1.39 ± 0.36
4,HCC1806 BREAST,1.25 ± 0.025
5,HCC1954 BREAST,0.808 ± 0.073
6,HCT15 LARGE INTESTINE,1.082 ± 0.0067
7,HELA CERVIX,1.2 ± 0.09
8,HMLE3 BREAST,0.978 ± 0.069
9,HMT3552 BREAST,1.12
10,HOS BONE,1.1 ± 0.023
11,HOSMNG BONE,1.04 ± 0.024
12,HS57T BREAST,1.01 ± 0.046
13,HS578T BREAST,0.936 ± 0.12
14,HSSYII SYNOVIAL,0.955 ± 0.046
15,HT1080 SOFT TISSUE,0.989 ± 0.029
16,HU09 BONE,1.03 ± 0.063
17,JIMT1 BREAST,0.997 ± 0.018
18,JURKAT HAEMATOPOIETIC AND LYMPHOID TISSUE,0.976 ± 0.023
19,KPD BONE,0.915 ± 0.06
20,LM7 BONE,0.945 ± 0.063
21,MCF7 BREAST,0.94 ± 0.029

row,Test System,surviving fraction
1,MDAMB134 BREAST,0.934 ± 0.014
2,MDAMB157 BREAST,0.962 ± 0.065
3,MDAMB231 BREAST,0.877 ± 0.01
4,MDAMB361 BREAST,0.825 ± 0.073
5,MDAMB436 BREAST,0.856 ± 0.036
6,MDAMB453 BREAST,1.07 ± 0.043
7,MDAMB468 BREAST,1.1 ± 0.035
8,MFM223 BREAST,1.19 ± 0.067
9,MG63 BONE,0.955 ± 0.02
10,MHM BONE,0.989 ± 0.026
11,NCIH441 LUNG,0.974 ± 0.065
12,NOS1 BONE,1.08 ± 0.032
13,NY BONE,1.06 ± 0.034
14,OS25HAL BONE,1.07 ± 0.02
15,OSHN BONE,1.09 ± 0.017
16,PCI30 HEADNECK,1.04 ± 0.018
17,RDES SOFT TISSUE,0.998 ± 0.12
18,S68 BREAST,1.04 ± 0.27
19,SAOS2 BONE,1.092 ± 0.0035
20,SCC36 HEADNECK,0.965 ± 0.073
